Patent US11926628B2 (Gilead Sciences, Inc., priority 2021, dated 2024)

How the values were obtained:
[1] = test system: Jurkat NFκB-luciferase cells; assay: Jurkat NFκB-Luciferase Assay; type: cell-based; details: Homo sapiens; Jurkat NFκB-luciferase cells activated with anti-CD3 antibody (OKT3), 2.5 hrs at 37° C.; geometric mean; read-out: DGK NFKb Luciferase EC50
Procedure, shortened: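 Jurkat NFκB-luciferase reporter cells stimulated on plate-bound anti-CD3 (5 ug/ml coating) with compound, 2.5 hrs at 37° C then 30 min at 25° C; luminescence read with One-Glo Ex. Normalized to DMSO (basal) and 1 micromolar compound (maximum) controls; EC50 from four-parameter fit, geometric mean across experiments.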

human DGKα = human DGKα (Homo sapiens (Human), UniProt P23743); assay: DGKα Biochemical Activity Assay (ADP-Glo); details: recombinant DGKα 1 nM, 100 μM ATP, 18:1 DAG/POPS/octylglucoside micelles, 1 hour at 25° C.; geometric mean; read-out: HTBS DGKa 1X ATP KM IC50
Procedure, shortened: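 Recombinant DGKα (1 nM final) was preincubated with compound for 15 min, then reacted for 1 h at 25 °C with 100 μM ATP and octylglucoside micelles of 0.85 mM 18:1 DAG and 6.75 mM POPS in pH 7.2 MOPS with 5 mM MgCl2. ADP formed was read by ADP-Glo luminescence. IC50 came from four-parameter fits normalized to DMSO and 50 μM CU3, and values were geometric means.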

human DGKα, sequence (P23743 whole entry): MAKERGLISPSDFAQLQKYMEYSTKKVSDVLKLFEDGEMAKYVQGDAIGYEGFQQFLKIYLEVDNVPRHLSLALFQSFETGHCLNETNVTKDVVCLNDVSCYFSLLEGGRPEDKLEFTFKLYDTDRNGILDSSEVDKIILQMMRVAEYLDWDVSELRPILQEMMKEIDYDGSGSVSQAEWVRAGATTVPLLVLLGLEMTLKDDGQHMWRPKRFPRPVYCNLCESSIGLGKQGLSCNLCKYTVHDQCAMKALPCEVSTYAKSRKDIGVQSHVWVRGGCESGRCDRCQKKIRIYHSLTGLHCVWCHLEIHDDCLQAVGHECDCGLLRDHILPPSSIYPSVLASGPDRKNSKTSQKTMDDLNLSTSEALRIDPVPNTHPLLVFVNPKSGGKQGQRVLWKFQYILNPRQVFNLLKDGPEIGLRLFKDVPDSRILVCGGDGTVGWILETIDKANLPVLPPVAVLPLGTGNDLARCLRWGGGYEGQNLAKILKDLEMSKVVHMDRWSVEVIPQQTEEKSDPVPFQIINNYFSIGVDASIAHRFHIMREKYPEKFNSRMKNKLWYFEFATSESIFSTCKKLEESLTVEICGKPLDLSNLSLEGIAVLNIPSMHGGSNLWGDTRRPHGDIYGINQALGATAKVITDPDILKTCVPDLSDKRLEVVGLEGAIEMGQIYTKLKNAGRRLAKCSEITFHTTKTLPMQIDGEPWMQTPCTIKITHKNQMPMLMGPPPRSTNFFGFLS

Row | SMILES | EC50 [1] [nM] | IC50 (human DGKα) [nM]
1 | Cc1nnc2nc(N3CCCc4c(C#CC(C)(C)O)cccc43)c3ccc(C(F)(F)F)nc3n12 [Example 145, 2-methyl-4-(1-(9-methyl-2-(trifluoromethyl)pyrido[3,2-e][1,2,4]triazolo[4,3-a]pyrimidin-5-yl)-1,2,3,4-tetrahydroquinolin-5-yl)but-3-yn-2-ol] | 8.73 | 59.6
2 | CCC(O)C#Cc1cccc2c1CCCN2c1nc2nncn2c2ncc(F)cc12 (stereo not drawn) [Example 146, 1-(1-(3-fluoropyrido[3,2-e][1,2,4]triazolo[4,3-a]pyrimidin-5-yl)-1,2,3,4-tetrahydroquinolin-5-yl)pent-1-yn-3-ol] | 18.1 | 7.78
3 | CC(C)(C#N)C#Cc1cccc2c1CCCN2c1nc2nncn2c2ncc(F)cc12 [Example 147, 4-(1-(3-fluoropyrido[3,2-e][1,2,4]triazolo[4,3-a]pyrimidin-5-yl)-1,2,3,4-tetrahydroquinolin-5-yl)-2,2-dimethylbut-3-ynenitrile] | 4.24 | 4.38
4 | CCC(C)(O)C#Cc1cccc2c1CCCN2c1nc2nncn2c2ncc(F)cc12 (stereo not drawn) [Example 148, 1-(1-(3-fluoropyrido[3,2-e][1,2,4]triazolo[4,3-a]pyrimidin-5-yl)-1,2,3,4-tetrahydroquinolin-5-yl)-3-methylpent-1-yn-3-ol] | 20.7 | 13.7
5 | CC(C)(O)C#Cc1cccc2c1CCCN2c1nc2nncn2c2ncc(F)cc12 [Example 149, 4-(1-(3-fluoropyrido[3,2-e][1,2,4]triazolo[4,3-a]pyrimidin-5-yl)-1,2,3,4-tetrahydroquinolin-5-yl)-2-methylbut-3-yn-2-ol] | 12 | 8.71
6 | CN(c1cccc(C#CC(C)(C)O)c1)c1nc2nncn2c2ncc(F)cc12 [Example 153] | 45.2 | 29.4

Now those with a lower EC50 [1], led by results:

Row | EC50 [1] [nM] | IC50 (human DGKα) [nM] | SMILES
7 | 2.18 | 8.44 | Fc1cnc2c(c1)c(N1CCCc3c(C#CC4(C(F)(F)F)CC4)cccc31)nc1nncn12 [Example 150, 11-fluoro-8-[5-[2-[1-(trifluoromethyl)cyclopropyl]ethynyl]-3,4-dihydro-2H-quinolin-1-yl]-2,4,5,7,13-pentazatricyclo[7.4.0.02,6]trideca-1(13),3,5,7,9,11-hexaene]
8 | 3.82 | 51.4 | CCC1(C#Cc2cccc(N(C)c3nc4nncn4c4ncc(F)cc34)c2)CC1 [Example 151, N-[3-[2-(1-ethylcyclopropyl)ethynyl]phenyl]-11-fluoro-N-methyl-2,4,5,7,13-pentazatricyclo[7.4.0.02,6]trideca-1(13),3,5,7,9,11-hexaen-8-amine]
9 | 3.18 | 32 | CN(c1cccc(C#CC(C)(C)C)c1)c1nc2nncn2c2ncc(F)cc12 [Example 152]
10 | 3.54 | 20.7 | CN(c1cccc(C#CC2(C(F)(F)F)CC2)c1)c1nc2nncn2c2ncc(F)cc12 [Example 154, 3-fluoro-N-methyl-N-(3-((1-(trifluoromethyl)cyclopropyl)ethynyl)phenyl)pyrido[3,2-e][1,2,4]triazolo[4,3-a]pyrimidin-5-amine]
11 | 0.707 | 17.2 | CN(c1cccc(-c2ccc(C3CC3)cc2)c1)c1nc2nncn2c2ncc(F)cc12 [Example 155, N-(4′-cyclopropyl-[1,1′-biphenyl]-3-yl)-3-fluoro-N-methylpyrido[3,2-e][1,2,4]triazolo[4,3-a]pyrimidin-5-amine]
12 | 2.69 | 10.7 | CN(c1cc(F)cc(C#CC2(C(F)(F)F)CC2)c1)c1nc2nncn2c2ncc(F)cc12 [Example 156, 3-fluoro-N-(3-fluoro-5-((1-(trifluoromethyl)cyclopropyl)ethynyl)phenyl)-N-methylpyrido[3,2-e][1,2,4]triazolo[4,3-a]pyrimidin-5-amine]
